Measured values published in patent US9447466B2 (NIPPON ZOKI PHARMACEUTICAL CO., LTD., priority 2010, dated 2016).
Values belong to the molecule of their own block, whether it stands above or below them.

Columns and labels:
BDNF [1] = experiment: Pharmacological Test 8: influence on TrkB inhibition (BDNF expression, semi-quantitative RT-PCR); format: cell-based, human; settings: SH-SY5Y cells; test substance 10 mNU/mL 24 hours; K252a 500 nM or αTrkB 20 μg/mL added 30 minutes before completion; FIG. 9
Procedure: K252a (tyrosine kinase inhibitor, 500 nM) or rabbit IgG of human TrkB-specific antibody (αTrkB, 20 μg/mL) was added to the cultured product 30 minutes before completion of the cultivation. After that, the same as in the above Pharmacological Test 1, the extracted total RNA was subjected to a semi-quantitative RT-PCR, the PCR product was separated by agarose electrophoresis and the bands of BDNF and cyclophilin A were visually detected.

BDNF [2] = experiment: Pharmacological Test 6: influence of intracellular signaling inhibitors on BDNF expression; format: cell-based, human; settings: SH-SY5Y cells; test substance 10 mNU/mL 24 hours; PD98059 10 μM, LY 294002 15 μM or SB 203580 0.5 μM added 30 minutes before completion; FIG. 7
Procedure: PD98059 (MEK inhibitor, 10 μM), LY 294002 (PI-3K inhibitor, 15 μM) or SB 203580 (p38 MAPK inhibitor, 0.5 μM) dissolved in a medium was added to a cultured product 30 minutes before completion of the cultivation. After that, the same as in the above Pharmacological Test 1, the extracted total RNA was subjected to a semi-quantitative RT-PCT, the PCR product was separated by agarose gel electrophoresis and the bands of BDNF and cyclophilin were visually detected.

CREB [3] = experiment: Inhibition of phosphorylation of CREB by p38MAPK inhibitor; format: cell-based
ERK1/2 = experiment: Inhibition of phosphorylation of ERK1/2 by MEK1/2 inhibitor; format: cell-based
CREB [4] = experiment: Pharmacological Test 5: effect to CREB pathway (immuno-blotting), phosphorylated CREB; format: cell-based; settings: SH-SY5Y cells; BDNF given from outside of the cells (human recombinant BDNF 50 pg/mL; 10 or 30 minutes)
From the text: (§1) Intracellular signaling molecules were detected by an immuno-blotting method using each of various specific antibodies produced to CREB (MAB 5432; Millipore), phosphorylated CREB (P-CREB: Clone 10E9; Millipore), P42/44 MAP kinase (ERK1/2; Cell Signaling Technology), phosphorylated P42/44 MAP kinase (P-MAPK: Tyr202/Tyr204; Cell Signaling Technology) and c-Fos (Gene Tex). […] After that, the cells were scraped off using a cell scraper (BD Bioscience), immediately washed with ice-cooled PBS and subjected to cytolysis according to a method of Mutoh, et al. (Proceedings of the National Academy of Sciences of the United States of America, vol. 92, pages 5087 to 5091, 1995). The cytolyzed product was subjected to an SDS-PAGE electrophoresis of 4 to 20% gel (ePAGEL; Atto Chemicals) and blotted to a PDVF (polyvinylidene fluoride) membrane. After said membrane was subjected to a blocking for 1 hour using Tris buffer physiological saline (TBS; 20 mM Tris-HCl, pH 7.5, 0.15M NaCl) containing 3% fat-free milk and 0.1% Tween 20 (TBS-T), a reaction with the primary antibody and the HRP-labeled secondary antibody was conducted in TBS-T for one hour at room temperature. Immuno-reactive bands of CREB, phosphorylated CREB, P42/44 MAP kinase, phosphorylated P42/44 MAP kinase and c-Fos were visually detected by a detection system by means of […] (ECL; GE Healthcare).

[5] = tested on: p42/44MAP kinase (ERK1/2); experiment: Pharmacological Test 5: effect to CREB pathway (immuno-blotting), phosphorylated P42/44 MAP kinase; format: cell-based; settings: SH-SY5Y cells; BDNF given from outside of the cells (human recombinant BDNF 50 pg/mL; 10 or 30 minutes)
From the text: as §1

Molecule: COC(=O)[C@@]1(O)C[C@H]2O[C@]1(C)n1c3ccccc3c3c4c(c5c6ccccc6n2c5c31)C(=O)NC4 [Example K252a]
BDNF expression enhanced by the test substance in presence of inhibitor or antibody (BDNF [1]): almost completely suppressed

Molecule: C[S+]([O-])c1ccc(-c2nc(-c3ccncc3)c(-c3ccc(F)cc3)[nH]2)cc1 (stereo not shown) [SB203580]
enhancement of BDNF expression by the test substance in presence of inhibitor (BDNF [2]): suppressed | phosphorylation of CREB (CREB [3]): inhibited

Molecule: COc1cccc(-c2cc(=O)c3ccccc3o2)c1N [PD98059]
phosphorylation of ERK1/2 (ERK1/2): inhibited | enhancement of BDNF expression by the test substance in presence of inhibitor (BDNF [2]): suppressed

phosphorylation of 42/44MAP kinase [5]: enhanced
B1: BDNF: human recombinant BDNF (Peprotech) given from outside of the cells (protein, UniProt P23560 19-247, looked up)
Neurotrophic factor BDNF …: APMKEANIRGQGGLAYPGVRTHGTLESVNGPKAGSRGLTSLADTFEHVIEELLDEDQKVRPNEENNKDADLYTSRVMLSSQVPLEPPLLFLLEEYKNYLDAANMSMRVRRHSDPARRGELSVCDSISEWVTAADKKTAVDMSGGTVTVLEKVPVSKGQLKQYFYETKCNPMGYTKEGCRGIDKRHWNSQCRTTQSYVRALTMDSKKRIGWRFIRIDTSCVCTLTIKRGR
phosphorylation of CREB (CREB [4]): enhanced
